Assay results: US20180327806A1, “MULTIPLEX HIGH-[…] OF MICRO-ORGANISM STRAINS, RELATED KITS, D[…] AND SCREENING ASSAYS” (THE BROAD INSTITUTE, INC., priority 2015, published 2018)

Tests used:
[1] = system: PA14 strain with MurA knockdown (hypomorph); assay: Growth of PA14 MurA knockdown (hypomorph) strain with drug; assay type: cell-based, Pseudomonas aeruginosa
Text: Engineering hypersusceptible strains (hypomorph strains): Strain PA14 is engineered so that the expression of selected essential genes may be lowered using a ‘weaker’ promoter. […] 30). It is possible to use a promoter library of varying strengths that was developed to drive GFP expression in E. coli (Davis, J. H., A. J. Rubin, and R. T. Sauer, Design, construction and characterization of a set of insulated bacterial promoters. Nucleic Acids Res, 2011. 39(3): p. 1131-41). […] The weakest promoter that provides the lowest tolerable level of the protein that still yields a viable bacterium may be used for each essential gene to create a hypersensitive strain. It is also proposed to construct control strains by knocking out dihydrofolate reductase dhfr (which is the target of trimethoprim), dihydropteroate synthetase dhps (which is the target of sulfamethoxazole), murA (which is the target of fosfomycin) and ostA (which is the OMP target of POL7001 [Srinivas, N., et al., Peptidomimetic antibiotics target outer-membrane biogenesis in Pseudomonas aeruginosa. Science, 2010. 327(5968): p. 1010-3.]). Then, it is possible to measure the MIC for each of these compounds against their respective strains compared to wild-type PA14.
FIG. 5 illustrates the use of variable promoters for generating and selecting hypomorph strains. […]

dfrA hypomorph strain = assay type: cell-based, M. tuberculosis; conditions: drug targeting dfrA

For `C[C@@H]1O[C@@H]1P(=O)(O)O` [fosfomycin], the “sensitivity of MurA knockdown PA14 strain to drug” value [1] was “hypersensitive”.
With `CN(Cc1cnc2nc(N)nc(N)c2n1)c1ccc(C(=O)N[C@@H](CCC(=O)O)C(=O)O)cc1` [methotrexate] the “sensitivity of dfrA hypomorph strain to drug (dose response curve)” value (dfrA hypomorph strain) was “hypersensitive”.
